# Experimental data from patent US9737075B2, “Synergistic benzoxaborole-containing anti-fungicidal composition” (The Penn State Research Foundation, priority 2015, dated 2017).
# Read-outs that look alike come from different tables or passages of the source.
# Assays:
# Type in all cases: cell-based
# [1] = tested on: Fusarium graminearum; experiment: microbe, parasite or virus in culture; conditions: Fusarium graminearum, 72 h, read-out: Independent MIC
# [2] = tested on: Sclerotinia homoeocarpa; experiment: Broth microdilution MIC of individual antifungals; conditions: Sclerotinia homoeocarpa, individual antifungal, 25% PDB, about 25° C., 72 hours, range over N independent triplicate studies; for MIC: Clarireedia homoeocarpa, read-out: Independent MIC
# [3] = tested on: Aspergillus niger; experiment: Broth microdilution MIC of individual antifungals; conditions: read-out: Independent MIC
# [4] = tested on: Botrytis cinerea 10-1728; experiment: Broth microdilution MIC of individual antifungals; conditions: Botrytis cinerea 10-1728, individual antifungal, 25% PDB, about 25° C., 72 hours, range over N independent triplicate studies; for MIC: 101728, read-out: Independent MIC
# [5] = tested on: Mucor sp.; experiment: Broth microdilution MIC of individual antifungals; conditions: individual antifungal, 25% PDB, about 25° C., 72 hours, range over N independent triplicate studies
# [6] = tested on: Magnaporthe grisea; experiment: microbe, parasite or virus in culture; conditions: Pyricularia oryzae, 72 h, read-out: Independent MIC
# [7] = tested on: Phytophthora pini; experiment: Broth microdilution MIC of individual antifungals; conditions: individual antifungal, 25% PDB, about 25° C., 72 hours, range over N independent triplicate studies
# [8] = tested on: Mycosphaerella zeae-maydis; experiment: Broth microdilution MIC of individual antifungals; conditions: Didymella maydis, individual antifungal, 25% PDB, about 25° C., 72 hours, range over N independent triplicate studies
# [9] = tested on: Aspergillus fumigatus; experiment: Broth microdilution MIC of individual antifungals; conditions: individual antifungal, 25% PDB, about 25° C., 72 hours, range over N independent triplicate studies, read-out: Independent MIC
# [10] = tested on: Fusarium verticillioides; experiment: Broth microdilution MIC of individual antifungals; conditions: individual antifungal, 25% PDB, about 25° C., 72 hours, range over N independent triplicate studies, read-out: Independent MIC
# [11] = tested on: Aspergillus flavus; experiment: Broth microdilution MIC of individual antifungals; conditions: individual antifungal, 25% PDB, about 25° C., 72 hours, range over N independent triplicate studies, read-out: Independent MIC
# [12] = tested on: Alternaria solani; experiment: Broth microdilution MIC of individual antifungals; conditions: individual antifungal, 25% PDB, about 25° C., 72 hours, range over N independent triplicate studies; for MIC: read-out: Independent MIC
# [13] = tested on: Candida albicans; experiment: Broth microdilution MIC of individual antifungals; conditions: individual antifungal, 25% PDB, about 25° C., 72 hours, range over N independent triplicate studies, read-out: Independent MIC
# [14] = tested on: Colletotrichum orbiculare; experiment: Broth microdilution MIC of individual antifungals; conditions: read-out: Independent MIC
# [15] = tested on: Penicillium chrysogenum; experiment: Broth microdilution MIC of individual antifungals; conditions: read-out: Independent MIC
# [16] = tested on: Rhizopus sp.; experiment: Broth microdilution MIC of individual antifungals; conditions: Rhizopus, 72 h, read-out: Independent MIC
# [17] = tested on: Rhizoctonia solani; experiment: Broth microdilution MIC of individual antifungals; conditions: individual antifungal, 25% PDB, about 25° C., 72 hours, range over N independent triplicate studies, read-out: Independent MIC
# [18] = tested on: Stachybotrys chartarum; experiment: Broth microdilution MIC of individual antifungals; conditions: 72 h, read-out: Independent MIC
# [19] = tested on: Aureobasidium pullulans; experiment: Broth microdilution MIC of individual antifungals; conditions: 72 h, read-out: Independent MIC
# [20] = tested on: Botrytis cinerea B17; experiment: Broth microdilution MIC of individual antifungals; conditions: Botrytis cinerea, B17, 72 h, read-out: Independent MIC
# [21] = individual antifungal, 25% PDB, about 25° C., 72 hours, range over N independent triplicate studies
# [22] = Rhizopus sp., individual antifungal, 25% PDB, about 25° C., 72 hours, range over N independent triplicate studies
compound,measurement,setting,value
"OB1OCc2ccccc21 [BO, 2-(hydroxymethyl)benzene boronic acid hemiester]",MIC,[1],2 to 4 µg/mL
"O=C(Nc1ccccc1-c1ccc(Cl)cc1)c1cccnc1Cl [Boscalid, boscalid]",MIC,[2],0.8 µg/mL
same,MIC,[3]; [21],0.39 to 0.5 µg/mL
same,MIC,[4],3.12 to 6.25 µg/mL
CCCCc1c(C)nc(NCC)nc1OS(=O)(=O)N(C)C [Bupirimate],MIC,[2],50 to 100 µg/mL
same,MIC,[5],100 µg/mL
same,MIC,[4],100 µg/mL
same,MIC,[6],50 µg/mL
same,MIC,[7],50 µg/mL
"COC(=O)Nc1nc2ccccc2[nH]1 [Carbendazim, carbendazim]",MIC,[2],0.05 to 0.1 µg/mL
same,MIC,[8],1.56 to 2 µg/mL
same,MIC,[9],1.56 to 3.12 µg/mL
same,MIC,[10],3.12 to 4 µg/mL
same,MIC,[3]; 72 h,1 to 1.56 µg/mL
same,MIC,[1],1.56 µg/mL
same,MIC,[6],0.39 to 0.78 µg/mL
same,MIC,[11],0.78 to 3.12 µg/mL
"Cc1cc(C2CC2)nc(Nc2ccccc2)n1 [Cyprodinil, cyprodinil]",MIC,[2],0.39 µg/mL
same,MIC,[5],50 µg/mL
same,MIC,[8],1.56 µg/mL
same,MIC,[12],100 µg/mL
same,MIC,[13],50 µg/mL
same,MIC,[14]; [21],100 to 200 µg/mL
same,MIC,[10],100 to 200 µg/mL
same,MIC,[3]; [21],3.12 µg/mL
same,MIC,[4],50 to 100 µg/mL
same,MIC,[1],200 µg/mL
same,MIC,[15]; [21],0.025 to 0.048 µg/mL
same,MIC,[11],0.75 to 1.56 µg/mL
"CCOc1ccc(NC(=O)OC(C)C)cc1OCC [Diethofencarb, diethofencarb]",MIC,[2],100 to 200 µg/mL
same,MIC,[5],100 to 200 µg/mL
same,MIC,[4],1.5 to 1.56 µg/mL
"COc1ccc(C(=CC(=O)N2CCOCC2)c2ccc(Cl)cc2)cc1OC [Dimethomorph, dimethomorph]",MIC,[5],200 to 400 µg/mL
same,MIC,[4],100 to 200 µg/mL
"CCCCc1c(C)nc(NCC)[nH]c1=O [Ethirimol, ethirimol]",MIC,[2],200 µg/mL
same,MIC,[8],400 µg/mL
same,MIC,[4],200 to 400 µg/mL
same,MIC,[7],200 µg/mL
"CSC1=N[C@@](C)(c2ccccc2)C(=O)N1Nc1ccccc1 [Fenamidone, fenamidone]",MIC,[2],100 to 200 µg/mL
same,MIC,[5],50 to 200 µg/mL
same,MIC,[8],50 to 200 µg/mL
same,MIC,[12],100 to 200 µg/mL
same,MIC,[4],100 µg/mL
"CC(Oc1ccc(Cl)cc1Cl)C(=O)NC(C)(C#N)C(C)C (stereo not shown) [Fenoxanil, fenoxanil]",Independent MIC,[2],200 µg/mL
same,Independent MIC,[5],(50-100) μg/mL
same,Independent MIC,[12],200 µg/mL
same,Independent MIC,[4],(100-200) μg/mL
"O=[N+]([O-])c1cc(C(F)(F)F)c(Cl)c([N+](=O)[O-])c1Nc1ncc(C(F)(F)F)cc1Cl [Fluazinam, fluazinam]",MIC,[2],3.12 to 6.25 µg/mL
same,MIC,[5],0.78 to 1 µg/mL
same,MIC,[8],1 to 1.56 µg/mL
same,MIC,[12],0.5 to 0.78 µg/mL
same,MIC,[16]; [22],0.2 to 0.78 µg/mL
same,MIC,[10],12.5 µg/mL
same,MIC,[17],6.25 to 25 µg/mL
same,MIC,[3]; [21],3.12 µg/mL
same,MIC,[4],1 to 1.56 µg/mL
same,MIC,[7],3.12 µg/mL
"N#Cc1c[nH]cc1-c1cccc2c1OC(F)(F)O2 [Fludioxonil, fludioxonil]",MIC,[2],0.125 to 0.25 µg/mL
same,MIC,[18],2 µg/mL
same,MIC,[19],3 to 3.12 µg/mL
same,MIC,[8],2 µg/mL
same,MIC,[16],50 to 80 µg/mL
same,MIC,[14]; 72 h,0.195 to 0.39 µg/mL
same,MIC,[9],0.25 to 1 µg/mL
same,MIC,[4],0.5 to 0.78 µg/mL
same,MIC,[1],50 µg/mL
same,MIC,[6],0.16 to 0.31 µg/mL
same,MIC,[20],0.5 µg/mL
same,MIC,[15]; 72 h,0.012 to 0.048 µg/mL
same,MIC,[7],200 µg/mL
"O=C(NCCc1ncc(C(F)(F)F)cc1Cl)c1ccccc1C(F)(F)F [Fluopyram, fluopyram]",MIC,[2],0.78 to 3.12 µg/mL
same,MIC,[5],200 µg/mL
same,MIC,[16]; [22],200 µg/mL
same,MIC,[9],3.12 to 6.25 µg/mL
same,MIC,[3]; [21],0.78 to 1.56 µg/mL
same,MIC,[4],1.56 to 4 µg/mL
same,MIC,[15]; [21],0.1 to 0.4 µg/mL
same,MIC,[11],200 µg/mL
"CC(C)Oc1cccc(NC(=O)c2ccccc2C(F)(F)F)c1 [Flutolanil, flutolanil]",MIC,[4],400 µg/mL
